From patent US10981888B2, “Preparation method for tricyclic compounds” (BAYER CROPSCIENCE AKTIENGESELLSCHAFT, priority 2016, dated 2021)

Assay: determination of log P values by HPLC on a reversed-phase column (C18), EEC Directive 79/831 Annex V.A8
Type: physicochemical
Settings: not given
Method: ^a) Note regarding the determination of the log P values and mass detection: The determination of the given log P values was carried out in accordance with EEC Directive 79/831 Annex V.A8 by HPLC (High Performance Liquid Chromatography) on a reversed-phase column (C18). […] Mass detection is via an Agilent MSD system. […] Mass detection is via an Agilent MSD system. The mass stated is the peak of the molecular ion+hydrogen [M+H]^+ (molecular ion=sum of the masses of the most abundant natural isotopes of which the molecule consists). ^c) GC/MS (gas chromatography/mass spectrometry) on dimethylsilicone phase. 10 m DB-1, ID=0.18 mm, film thickness=0.4 μm; injector: 250° C., carrier gas flow rate: […] helium; detector: MSD: 280° C., FID: 320° C.; oven temperature: 50° C. (1 minute), 50° C.-320° C. ([…], 40° C./min), 320° C. (6.75 minutes); Kovacs Indices calibrated with alkane mixture.

Q: Which chromatographic logP does the source give for `CC1(C)OB(c2cnc(Cl)c(C(=O)NC3CC3)c2)OC1(C)C` [2-chloro-N-cyclopropyl-5-(4,4,5,5-tetramethyl-1,3,2-dioxaborolan-2-yl)nicotinamide] here?
A: 0.9

Same assay, conditions: reversed-phase C18 HPLC column (Zorbax Eclipse Plus C18); HPLC-MS method a): Zorbax Eclipse Plus C18; acetonitrile (0.1% formic acid) / water (0.09% formic acid), gradient 10% to 95% acetonitrile, 55° C.; read-out: log P

Q: For `O=C(NC1CC1)c1cc(-c2cnn(-c3c(Cl)cc(C(F)(C(F)(F)F)C(F)(F)F)cc3C(F)(F)F)c2)cnc1Cl` [2-Chloro-5-{1-[2-chloro-4-(1,1,1,2,3,3,3-heptafluoropropan-2-yl)-6-(trifluoromethyl)phenyl]-1H-pyrazol-4-yl}-N-cyclopropylnicotinamide], which chromatographic logP is on record?
A: 4

Q: With `Cc1cc(C(F)(C(F)(F)F)C(F)(F)F)cc(C)c1-n1cccn1` [1-[4-(1,1,1,2,3,3,3-heptafluoropropan-2-yl)-2,6-dimethylphenyl]-1H-pyrazole] as the molecule, how does the chromatographic logP read?
A: 4.3

Q: With `FC(F)(F)C(F)(c1cc(Cl)c(-n2cc(Br)cn2)c(Cl)c1)C(F)(F)F` [4-bromo-1-[2,6-dichloro-4-(1,1,1,2,3,3,3-heptafluoropropan-2-yl)phenyl]-1H-pyrazole] as the molecule, how does the chromatographic logP read?
A: 5.07

Q: For `Cc1cc(C(F)(C(F)(F)F)C(F)(F)F)cc(C)c1-n1cc(I)cn1` [1-[4-(1,1,1,2,3,3,3-heptafluoropropan-2-yl)-2,6-dimethylphenyl]-4-iodo-1H-pyrazole], which chromatographic logP is on record?
A: 5.2

Q: Which chromatographic logP does the source give for `FC(F)Oc1cc(C(F)(C(F)(F)F)C(F)(F)F)cc(Cl)c1-n1cccn1` [1-[2-chloro-6-(difluoromethoxy)-4-(1,1,1,2,3,3,3-heptafluoropropan-2-yl)phenyl]-1H-pyrazole] here?
A: 4.04

Q: With `CN(C(=O)c1cc(-c2cnn(-c3c(Cl)cc(C(F)(C(F)(F)F)C(F)(F)F)cc3Cl)c2)cnc1Cl)C1(C#N)CC1` [2-chloro-N-(1-cyanocyclopropyl)-5-{1-[2,6-dichloro-4-(1,1,1,2,3,3,3-heptafluoropropan-2-yl)phenyl]-1H-pyrazol-4-yl}-N-methylnicotinamide] as the molecule, how does the chromatographic logP read?
A: 4.31

Q: For `CN(C(=O)c1cc(-c2cnn(-c3c(Cl)cc(C(F)(C(F)(F)F)C(F)(F)F)cc3Cl)c2)cnc1Cl)C1CC1` [2-Chloro-N-cyclopropyl-5-{1-[2,6-dichloro-4-(1,1,1,2,3,3,3-heptafluoropropan-2-yl)phenyl]-1H-pyrazol-4-yl}-N-methylnicotinamide], which chromatographic logP is on record?
A: 4.36

Q: Which chromatographic logP does the source give for `Cc1cc(C(F)(C(F)(F)F)C(F)(F)F)cc(C(F)(F)F)c1-n1cccn1` [1-[4-(1,1,1,2,3,3,3-heptafluoropropan-2-yl)-2-methyl-6-(trifluoromethyl)phenyl]-1H-pyrazole] here?
A: 4.4

Q: With `FC(F)(F)C(F)(c1cc(Cl)c(-n2cc(I)cn2)c(Cl)c1)C(F)(F)F` [1-[2,6-dichloro-4-(1,1,1,2,3,3,3-heptafluoropropan-2-yl)phenyl]-4-iodo-1H-pyrazole] as the molecule, how does the chromatographic logP read?
A: 5.17

Q: With `CN(C(=O)c1cc(-c2cnn(-c3c(Cl)cc(C(F)(C(F)(F)F)C(F)(F)F)cc3C(F)(F)F)c2)cnc1Cl)C1CC1` [2-Chloro-5-{1-[2-chloro-4-(1,1,1,2,3,3,3-heptafluoropropan-2-yl)-6-(trifluoromethyl)phenyl]-1H-pyrazol-4-yl}-N-cyclopropyl-N-methylnicotinamide] as the molecule, how does the chromatographic logP read?
A: 4.46

Q: With `FC(F)(F)c1cc(C(F)(C(F)(F)F)C(F)(F)F)cc(Cl)c1-n1cccn1` [1-[2-chloro-4-(1,1,1,2,3,3,3-heptafluoropropan-2-yl)-6-(trifluoromethyl)phenyl]-1H-pyrazole] as the molecule, how does the chromatographic logP read?
A: 4.38

Q: Which chromatographic logP does the source give for `FC(F)(F)c1cc(C(F)(C(F)(F)F)C(F)(F)F)cc(Br)c1-n1cccn1` [1-[2-bromo-4-(1,1,1,2,3,3,3-heptafluoropropan-2-yl)-6-(trifluoromethyl)phenyl]-1H-pyrazole] here?
A: 4.42

Q: Which chromatographic logP does the source give for `O=C(NC1CC1)c1cc(-c2cnn(-c3c(Br)cc(C(F)(C(F)(F)F)C(F)(F)F)cc3OC(F)(F)F)c2)cnc1Cl` [5-{1-[2-Bromo-4-(1,1,1,2,3,3,3-heptafluoropropan-2-yl)-6-(trifluoromethoxy)phenyl]-1H-pyrazol-4-yl}-2-chloro-N-cyclopropylnicotinamide] here?
A: 4.25

Q: Which chromatographic logP does the source give for `Cc1cc(C(F)(C(F)(F)F)C(F)(F)F)cc(C)c1-n1cc(-c2cnc(Cl)c(C(=O)NC3(C#N)CC3)c2)cn1` [2-Chloro-N-(1-cyanocyclopropyl)-5-{1-[4-(1,1,1,2,3,3,3-heptafluoropropan-2-yl)-2,6-dimethylphenyl]-1H-pyrazol-4-yl}nicotinamide] here?
A: 3.87

Q: For `FC(F)(F)c1cc(C(F)(C(F)(F)F)C(F)(F)F)cc(Cl)c1-n1cc(I)cn1` [1-[2-chloro-4-(1,1,1,2,3,3,3-heptafluoropropan-2-yl)-6-(trifluoromethyl)phenyl]-4-iodo-1H-pyrazole], which chromatographic logP is on record?
A: 5.19

Q: With `N#CC1(NC(=O)c2cc(-c3cnn(-c4c(Cl)cc(C(F)(C(F)(F)F)C(F)(F)F)cc4Cl)c3)cnc2Cl)CC1` [2-Chloro-N-(1-cyanocyclopropyl)-5-{1-[2,6-dichloro-4-(1,1,1,2,3,3,3-heptafluoropropan-2-yl)phenyl]-1H-pyrazol-4-yl}nicotinamide] as the molecule, how does the chromatographic logP read?
A: 3.81

Q: For `FC(F)Oc1cc(C(F)(C(F)(F)F)C(F)(F)F)cc(Cl)c1-n1cc(I)cn1` [1-[2-chloro-6-(difluoromethoxy)-4-(1,1,1,2,3,3,3-heptafluoropropan-2-yl)phenyl]-4-iodo-1H-pyrazole], which chromatographic logP is on record?
A: 4.82

Q: Which chromatographic logP does the source give for `FC(F)(F)C(F)(c1cc(Cl)c(-n2cccn2)c(Cl)c1)C(F)(F)F` [1-[2,6-dichloro-4-(1,1,1,2,3,3,3-heptafluoropropan-2-yl)phenyl]-1H-pyrazole] here?
A: 4.22

Q: Which chromatographic logP does the source give for `FC(F)(F)c1cc(C(F)(C(F)(F)F)C(F)(F)F)cc(Br)c1-n1cc(I)cn1` [1-[2-bromo-4-(1,1,1,2,3,3,3-heptafluoropropan-2-yl)-6-(trifluoromethyl)phenyl]-4-iodo-1H-pyrazole] here?
A: 5.22

Q: With `CN(C(=O)c1cc(-c2cnn(-c3c(Cl)cc(C(F)(C(F)(F)F)C(F)(F)F)cc3OC(F)(F)F)c2)cnc1Cl)C1CC1` [2-Chloro-5-{1-[2-chloro-4-(1,1,1,2,3,3,3-heptafluoropropan-2-yl)-6-(trifluoromethoxy)phenyl]-1H-pyrazol-4-yl}-N-cyclopropyl-N-methylnicotinamide] as the molecule, how does the chromatographic logP read?
A: 4.56

Q: Which chromatographic logP does the source give for `O=C(NC1CC1)c1cc(-c2cnn(-c3c(Cl)cc(C(F)(C(F)(F)F)C(F)(F)F)cc3OC(F)(F)F)c2)cnc1Cl` [2-chloro-5-{1-[2-chloro-4-(1,1,1,2,3,3,3-heptafluoropropan-2-yl)-6-(trifluoromethoxy)phenyl]-1H-pyrazol-4-yl}-N-cyclopropylnicotinamide] here?
A: 4.28

Q: With `CN(C(=O)c1cc(-c2cnn(-c3c(Br)cc(C(F)(C(F)(F)F)C(F)(F)F)cc3C(F)(F)F)c2)cnc1Cl)C1CC1` [5-{1-[2-bromo-4-(1,1,1,2,3,3,3-heptafluoropropan-2-yl)-6-(trifluoromethyl)phenyl]-1H-pyrazol-4-yl}-2-chloro-N-cyclopropyl-N-methylnicotinamide] as the molecule, how does the chromatographic logP read?
A: 4.28
